According to article PMC11026403 (Communications Biology, 2024):

Target: A/Denmark/524/2009 (H1N1)pdm09 NA-H274 (Influenza A virus, UniProt C3W5S3)
Type: biochemical

## CCC(CC)[C@H](NC(C)=O)[C@@H]1[C@H](O)[C@@H](C(=O)O)C[C@H]1N=C(N)N [peramivir]
  IC50: 0.1 nM
